Test results from paper PMC4721142, “Randomized controlled studies on the efficacy of antiarthritic agents in inhibiting cartilage degeneration and pain associated with progression of osteoarthritis in the rat” (Arthritis Research & Therapy, 2016).
Where “and” joins values, the source holds several entries; their conditions need not be identical. Equal values may be shown once. Marks after values point to notes of the source that are not given here.

How the values were obtained:
MIA rat model of OA [1] = assay: MIA trial 2 histopathology (same doses as dRS test); assay type: in vivo; set-up: key to Total joint score with matrix / Total joint score w/o matrix: sum of cartilage degeneration, osteophyte and bone scores (± matrix); conditions: group mean
Procedure: Following functional testing in the first and second MIA trials, femurs were fixed in paraformaldehyde, processed, sectioned, stained with hematoxylin and eosin or Safranin O at Premier Laboratory (Longmont, CO, USA), and analyzed by a veterinary pathologist. For MIA trial 1, sections were evaluated for the percentage area of chondrocyte necrosis and/or proteolytic degeneration using a 5-point scale with 0 = none; 1 being <10 %; 2 = 10–30 %; 3 = 30–60 %; 4 = 60–90 %; and 5 being >90 %. Other characteristics of inflammation, proliferation, and integrity of the synovium, subchondral bone, and articular cartilage were scored as normal, minimal, mild, moderate, marked, or increased or decreased when severity was not graded. MIA trial 2 was measured similarly and then cross-checked according to the methods used for MIA trial 3 (see text below).
For MIA trial 3, joints were fixed and toluidine blue–stained sections of the rat knees were comprehensively analyzed from test and control subjects as detailed in Additional file 1. Briefly, a 5-point cartilage matrix score was derived based upon (1) approximate percentage of total loss of articular chondrocytes for each of four articular surfaces, (2) estimated proteoglycan loss (via Safranin O staining), and (3) loss of interstitial matrix. Chondrocyte necrosis and proteolytic degeneration of the femurs were scored on a 5-point scale as in trial 1. A femoral cartilage degeneration score and a three-zone sum of the tibial cartilage degeneration scores (mean of three levels) were also summed to create a total cartilage degeneration score. The mean osteophyte score for each joint was added to this value to create a total joint score with matrix. Other parameters assessed included synovial membrane inflammation and proliferation. Representative images from each group were also collected (see, e.g., Fig. 4 and Additional file 1: Fig. S55, Trial 3).
The histopathology for the first MIA trial was performed by Premier Laboratories (Dr. Michael Hawes, APS, Pathologist). Treatments were masked during the assessment. Chondrocyte necrosis and proteolytic degeneration of the femurs were scored on a 5 point scale with 0 = None; 1 = <10%; […]
proteoglycan content (safranin O staining), synovial membrane inflammation and proliferation, subchondral bone, and articular cartilage (as indicated in Supplementary methods). Characteristics within these categories were scored as normal, minimal, mild, moderate, marked, or +/- when severity was not graded. Slides from Trial 2 were further reviewed by Dr. Bendele using the analytical method described below for the MMT/MCLT model to confirm any conclusions.
For the histopathology of the MIA model in Trial 3, completed by Bolder BioPATH (and Dr.
Bendele), a tolouidine blue stained slide containing both halves of the joint was comprehensively analyzed from test and control subjects. Approximate % of total loss of articular chondrocytes, loss of proteoglycan and loss of collagenous matrix were determined for each articular surface (medial tibial plateau (MTP), lateral tibial plateau (LTP), medial femoral condyle (MFC), and lateral femoral condyle (LFC). Chondrocyte loss was quantified by estimating the area of cartilage in which there were no apparently viable chondrocytes and proteoglycan loss was quantified by estimating differences in intensity of toluidine blue matrix staining. Loss of interstitial matrix was an indication of disruption and diminished type II collagen. Based on the mean % loss for the four surfaces in these parameters, a five point matrix score was utilized with the subchondral bone resorption, subchondral bone sclerosis and osteophyte scores to achieve a total joint score.
Histopathology MMT/MCLT Model

MIA rat model of OA [2] = assay: MIA trial 2 digital Randall-Selitto test (daily tacrolimus 0.3 or 0.6 mg/kg i.p., curcumin 50 mg/kg p.o., fluocinolone 0.01 mg/kg s.c.; weekly clonidine 0.1 mg/kg s.c.); assay type: in vivo
Procedure: The digital Randall-Selitto (dRS) test is said to be a reliable and repeatable measure of neuropathic, bone, and inflammatory pain behavior in several different models, including those of arthritic or joint pain [29, 31, 32]. Baseline and posttreatment values were evaluated using a dRS test device (IITC Life Science, Woodland Hills, CA, USA). Animals were allowed to acclimate to the testing room before all experimentation and for a minimum of 30 minutes before testing. To ensure that their hind limbs were accessible, the animals were gently suspended in a restraint sling. The joint compression threshold was measured once at each time point for the ipsilateral and contralateral knee joints. Pressure was applied gradually over approximately 10 seconds to the medial and lateral aspects of the knee joint. Measurements were taken from the first observed behavior of vocalization, struggle, or withdrawal. A cutoff value of 600 g was used to prevent injury to the animal.
Following isoflurane anesthesia, 50 μl (2 mg) of MIA was injected into the synovial space of the left knee. Animals were randomly assigned to groups, and pain behavior was assessed 7, 14, 21, and 28 days following MIA injection and intervention using WB with the Stoelting incapacitance meter (trial 1) or the dRS test (trials 2 and 3). […] Animals received MIA treatment and then saline control or therapeutic. […] Histopathology was performed at each time point and at study termination. All studies were conducted in accordance with the International Association for the Study of Pain Guidelines and were approved by the Algos Therapeutics, Inc. Institutional Animal Care and Use Committee (IACUC) before initiation. Those running the studies were blind to the treatments. See Additional file 1 for further details.

MMP-13 = MMP-13 ELISA on supernatants of TNF-α-treated chondrogenic pellets; assay type: cell-based, human
NF-κB = assay: TNF-α-stimulated NF-κB dual luciferase reporter assay in HeLa cells; assay type: cell-based
Procedure, shortened: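 HeLa cells transfected with NF-κB firefly luciferase and Renilla pRLuc-N3 plasmids (8:1), in triplicate; TNF-α stimulation with drug, luminescence read 5 h later by Dual-Glo. Firefly/Renilla ratio normalised to viable transfected cells, expressed as fold over cells without TNF-α or drug.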

[3] = tacrolimus 0.3 mg/kg, other drugs single dose
[4] = day 21, tacrolimus 0.3 mg/kg, other drugs single dose

Compound | Bone resorption score (MIA rat model of OA [1]; [3]) | Bone resorption, percent of surface, LFC (MIA rat model of OA [1]; [3]) | Bone resorption, percent of surface, LTP (MIA rat model of OA [1]; [3]) | Bone resorption, percent of surface, MFC (MIA rat model of OA [1]; [3]) | Bone resorption, percent of surface, MTP (MIA rat model of OA [1]; [3]) | Bone resorption, percent of surface, mean (MIA rat model of OA [1]; [3]) | Cartilage matrix damage score (MIA rat model of OA [1]; [3]) | Mean of all cartilage loss (MIA rat model of OA [1]; [3]) | Osteophyte measure (MIA rat model of OA [1]; [3]) | Osteophyte score (MIA rat model of OA [1]; [3]) | Subchondral bone sclerosis score (MIA rat model of OA [1]; [3]) | Total joint score w/o matrix (MIA rat model of OA [1]; [3]) | Total joint score with matrix (MIA rat model of OA [1]; [3]) | dRS, hours after dosing with significant difference (MIA rat model of OA [2]; [4]) | Effective range against NFkB (NF-κB) | also measured
Clc1cccc(Cl)c1N=C1NCCN1 [Clonidine] | 3.7 | 87% | 53% | 63% | 73% | 69% | 3.7 and 3.7 ± 0.3 | 67% | 866.7 µm | 4.0 | 0.3 | 8.0 | 11.7 and 11.7 ± 0.9 | 3 h | Not effective | Effective range against MMP-13 (MMP-13): Not effective
COc1cc(/C=C/C(=O)CC(=O)/C=C/c2ccc(O)c(OC)c2)ccc1O [Curcumin, Diferuloylmethane] | 4.8 | 100% | 100% | 88% | 90% | 94% | 5.0 and 5.0 ± 0.0 | 89% | 1000.0 µm | 4.8 | 0.0 | 9.5 | 14.5 and 14.5 ± 0.3 | Pretrt^d |  | dRS, hours after dosing with significant difference (MIA rat model of OA [2]; day 7, tacrolimus 0.3 mg/kg, other drugs single dose): 1 h
CC1(C)O[C@@H]2C[C@H]3[C@@H]4C[C@H](F)C5=CC(=O)C=C[C@]5(C)[C@@]4(F)[C@@H](O)C[C@]3(C)[C@]2(C(=O)CO)O1 [Fluocinolone, Fluocinolone Acetonide] | 3.0 | 65% | 58% | 38% | 45% | 51% | 3.3 and 3.3 ± 0.8 | 60% | 600.0 µm | 3.0 | 0.0 | 6.0 | 9.3 and 9.3 ± 2.5 |  |  | dRS, hours after dosing with significant difference (MIA rat model of OA [2]; day 14, tacrolimus 0.3 mg/kg, other drugs single dose): 5^e h
C=CC[C@@H]1/C=C(\C)C[C@H](C)C[C@H](OC)[C@H]2O[C@@](O)(C(=O)C(=O)N3CCCC[C@H]3C(=O)O[C@H](/C(C)=C/[C@@H]3CC[C@@H](O)[C@H](OC)C3)[C@H](C)[C@@H](O)CC1=O)[C@H](C)C[C@@H]2OC [Tacrolimus] | 4.3 | 88% | 88% | 70% | 94% | 85% | 3.8 and 3.8 ± 0.6 | 69% | 700.0 µm | 3.5 | 0.0 | 7.8 | 11.5 and 11.5 ± 1.7 | Pretrt^d |  | Bone resorption score (MIA rat model of OA [1]; tacrolimus 0.6 mg/kg i.p.): 3.8; Bone resorption, percent of surface, LFC (MIA rat model of OA [1]; tacrolimus 0.6 mg/kg i.p.): 80%; Bone resorption, percent of surface, LTP (MIA rat model of OA [1]; tacrolimus 0.6 mg/kg i.p.): 70%; Bone resorption, percent of surface, MFC (MIA rat model of OA [1]; tacrolimus 0.6 mg/kg i.p.): 63%; Bone resorption, percent of surface, MTP (MIA rat model of OA [1]; tacrolimus 0.6 mg/kg i.p.): 68%; Bone resorption, percent of surface, mean (MIA rat model of OA [1]; tacrolimus 0.6 mg/kg i.p.): 70%; Cartilage matrix damage score (MIA rat model of OA [1]; tacrolimus 0.6 mg/kg i.p.): 3.8 and 3.8 ± 0.6; Mean of all cartilage loss (MIA rat model of OA [1]; tacrolimus 0.6 mg/kg i.p.): 62%; Osteophyte measure (MIA rat model of OA [1]; tacrolimus 0.6 mg/kg i.p.): 550.0 µm; Osteophyte score (MIA rat model of OA [1]; tacrolimus 0.6 mg/kg i.p.): 2.8; Subchondral bone sclerosis score (MIA rat model of OA [1]; tacrolimus 0.6 mg/kg i.p.): 0.0; Total joint score w/o matrix (MIA rat model of OA [1]; tacrolimus 0.6 mg/kg i.p.): 6.5; Total joint score with matrix (MIA rat model of OA [1]; tacrolimus 0.6 mg/kg i.p.): 10.3 and 10.3 ± 2.1; dRS, hours after dosing with significant difference (MIA rat model of OA [2]; day 21, tacrolimus 0.6 mg/kg i.p.): 1 h; Concentration inhibiting MMP-13 (MMP-13; > = failed to inhibit up to highest concentration tested): 50 µM
COc1ccc(C=CC(=O)Nc2ccccc2C(=O)O)cc1OC [Tranilast, N-(3′,4′-dimethoxycinnamoyl)anthranilic acid] |  |  |  |  |  |  |  |  |  |  |  |  |  |  | None | 
CC1=C(CO)C(=O)O[C@@H]([C@@H](C)[C@H]2CC[C@H]3[C@@H]4C[C@H]5O[C@]56[C@@H](O)C=CC(=O)[C@]6(C)[C@H]4CC[C@]23C)C1 [Withaferin A] |  |  |  |  |  |  |  |  |  |  |  |  |  |  |  | Effective against NF κβ (p<0.05) (NF-κB): 2 to 17 µM
